This assay deals with HBV εRNA. The assay is described as follows: εRNA/oligonucleotide hybridization inhibition assay with rRNA competitor. The format is binding, Hepatitis B virus. The settings on record: for IC50 / HBV + rRNA IC50 (μM): radiolabeled εRNA, 60-fold excess rRNA competitor; for Specificity: ratio RRE+rRNA IC50/εRNA+rRNA IC50, max = inactive in RRE assay. In short, it runs like this:
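Inhibition of hybridization between 25 nM [32P]-εRNA and 100 nM biotinylated complementary oligonucleotide (50 mM Tris-HCl pH 7.5, 200 mM KCl, 5 mM MgCl2, 60 min, 25 °C), hybrids captured by streptavidin filter and counted. Titrations 0.1-200 μM with 60-fold excess rRNA; specificity = RRE+rRNA IC50/εRNA+rRNA IC50.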

The IC50 is the midpoint of a concentration-inhibition curve.

Turning to `C(=Cc1ccccc1)C=NNc1nc(Nc2ccccc2)nc(Nc2ccccc2)n1` [Compound 125], the IC50 stood at 35.1 µM and the Specificity was determined as 28.5.
For `CCCCN(CCCC)c1nc(NN=Cc2ccc(Cl)cc2)nc(Nc2ccc([N+](=O)[O-])cc2)n1` [Compound 16] the same measures were 12.1 µM and “max”.
In the same order, the values of `CC(C=NNc1nc(Nc2ccc([N+](=O)[O-])cc2)nc(Nc2ccc(C)c(C)c2)n1)=Cc1ccccc1` [Compound 19] are 9.9 µM and “max”.
Take `Oc1c(Br)cc(Cl)cc1/C=N/Nc1nc(Nc2cccc(C(F)(F)F)c2)nc(N2CCOCC2)n1` [Compound 34]: the half-inhibitory concentration (IC50) came out at 21 µM and the Specificity result is listed as “max”.
As for `Cc1ccc(Nc2nc(NCc3ccccc3)nc(NN=Cc3cc(Br)cc(Br)c3O)n2)cc1C` [Compound 219], the “HBV + rRNA IC50 (μM)” value was “inactive”.
As to `CCN(CC)c1nc(NN=Cc2ccc(Cl)c([N+](=O)[O-])c2)nc(Nc2cc(C)ccc2C)n1` [Compound 214], the IC50 was 42.6 µM and the Specificity result was “max”.
For `Cc1ccc(Nc2nc(NN=Cc3ccc(I)cc3)nc(Nc3ccccc3)n2)c(C)c1` [Compound 113], the half-inhibitory concentration (IC50) was found to be 33.1 µM and the Specificity came out at 9.1.
As for `Oc1ccc(I)cc1C=NNc1nc(NCc2ccccc2)nc(Nc2ccccc2)n1` [Compound 33], the IC50 worked out at 37.2 µM and the Specificity entry was “max”.
For `CCN(CC)c1nc(NN=Cc2c(O)ccc3ccccc23)nc(Nc2ccccc2)n1` [Compound 171], the IC50 is 9.4 µM and the Specificity result is “max”.
In the same order, the values of `CC(=NNc1nc(NCc2ccccc2)nc(Nc2ccccc2)n1)c1ccc([N+](=O)[O-])cc1` [Compound 182] are 70.4 µM and “max”.
`Cc1ccc(Nc2nc(NCc3cc(F)ccc3F)nc(Nc3ccc([N+](=O)[O-])cc3)n2)cc1C` [Compound 248]: the “HBV + rRNA IC50 (μM)” value was “inactive”.
Take `O=[N+]([O-])c1ccc(Nc2nc(NCc3ccccc3)nc(NN=Cc3ccccc3)n2)cc1` [Compound 24]: the 50% inhibitory concentration (IC50) was determined as 10 µM and the Specificity entry was “max”.
On to `CNc1nc(NN=Cc2cc(Cl)ccc2O)nc(Nc2ccccc2)n1` [Compound 245], for which the IC50 was determined as 8.1 µM and the Specificity result was “max”.
In the same order, the values of `Oc1ccccc1C=NNc1nc(Nc2ccccc2)nc(N2CCCCC2)n1` [Compound 169] are 15.4 µM and “max”.
Take `Cc1ccc(Nc2nc(NN=Cc3cccc([N+](=O)[O-])c3)nc(Nc3ccccc3)n2)c(C)c1` [Compound 229]: the IC50 came to 4.4 µM and the Specificity result was “max”.
As to `COc1ccc(Nc2nc(NCc3cccc([N+](=O)[O-])c3)nc(NCc3cc(F)ccc3F)n2)cc1OC` [Compound 225], the half-inhibitory concentration (IC50) turned out to be 193 µM and the Specificity result was “max”.
Regarding `COc1cccc(C=NNc2nc(Nc3ccccc3)nc(N3CCCC3)n2)c1O` [Compound 170], the IC50 was determined as 6.2 µM and the Specificity was 119.3.
Consider `COc1ccc(Nc2nc(NN=Cc3ccc(Cl)cc3)nc(Nc3ccccc3)n2)cc1` [Compound 22], for which the 50% inhibitory concentration (IC50) is 3.6 µM and the Specificity result is reported as “max”.
For `COc1ccc(Nc2nc(NN=Cc3ccc(O)cc3O)nc(Nc3ccccc3)n2)cc1` [Compound 158] the same measures were 7.4 µM and “max”.
For `COc1ccc(C=NNc2nc(NCc3ccccc3)nc(Nc3ccccc3)n2)cc1` [Compound 165] the same measures were 18.8 µM and “max”.
For `COc1ccc(Nc2nc(NN=Cc3ccc(O)cc3O)nc(N3CCOCC3)n2)cc1` [Compound 164] the same measures were 48 µM and “max”.
In the case of `Cc1ccc(Nc2nc(NN=Cc3ccccc3O)nc(Nc3ccc([N+](=O)[O-])cc3)n2)cc1C` [Compound 12], the IC50 is 2.6 µM and the Specificity result was “max”.
For `C(=Cc1ccccc1)C=NNc1nc(Nc2ccccc2)nc(N2CCCC2)n1` [Compound 213] the same measures were 15.6 µM and 33.3.
For `O=[N+]([O-])c1ccc(Nc2nc(NN=Cc3ccc(Br)cc3)nc(N3CCCCCC3)n2)cc1` [Compound 117] the same measures were 15.6 µM and “max”.
For `Cc1ccccc1Nc1nc(NN=Cc2ccc(I)cc2)nc(Nc2ccc([N+](=O)[O-])cc2)n1` [Compound 10], the half-inhibitory concentration (IC50) was 12 µM and the Specificity result is on record as “max”.
As for `COc1c(C=NNc2nc(Nc3ccccc3)nc(Nc3ccccc3)n2)ccc(Br)c1O` [Compound 168], the IC50 came to 19.7 µM and the Specificity result is recorded as “max”.
Turning to `Cc1ccc(Nc2nc(NNC(=O)c3ccccc3O)nc(Oc3ccc([N+](=O)[O-])cc3)n2)cc1C` [Compound 250], the “HBV + rRNA IC50 (μM)” value is “inactive”.
Consider `Oc1ccc(Br)cc1C=NNc1nc(Nc2cccc(Br)c2)nc(N2CCOCC2)n1` [Compound 232], for which the IC50 stood at 45.5 µM and the Specificity entry is given as “max”.
With `COc1ccc(Nc2nc(NN=Cc3ccc(OC)cc3OC)nc(Nc3ccccc3)n2)cc1` [Compound 20], the IC50 was 11.7 µM and the Specificity result is reported as “max”.
In the same order, the values of `Oc1ccc(Br)cc1C=NNc1nc(Nc2cccc(C(F)(F)F)c2)nc(N2CCOCC2)n1` [Compound 246] are 5.6 µM and “max”.
For `Ic1cccc(C=NNc2nc(Nc3ccc4ccccc4c3)nc(N3CCOCC3)n2)c1` [Compound 166], the IC50 was 36.3 µM and the Specificity result is given as “max”.
In the same order, the values of `CCN(CC)c1nc(Nc2cccc(Br)c2)nc(Nc2cc(C)ccc2C)n1` [Compound 202] are 68 µM and “max”.
Turning to `COc1c(C=NNc2nc(NCc3ccccc3)nc(Nc3ccccc3)n2)cccc1[N+](=O)[O-]` [Compound 162], the half-inhibitory concentration (IC50) was found to be 11.7 µM and the Specificity entry is “max”.
With `FC(F)(F)c1cccc(Nc2nc(Nc3ccccc3)nc(N3CCOCC3)n2)c1` [Compound 21], the IC50 came to 14.4 µM and the Specificity result is on record as “max”.
Consider `CCN(CC)CCNc1ccc2c3c(cccc13)C(=O)N(Nc1nc(NCc3ccccc3)nc(N(CC)CC)n1)C2=O` [Compound 27], for which the IC50 turned out to be 15.5 µM and the Specificity result is on record as “max”.
For `Oc1ccc(Cl)cc1C=NNc1nc(Nc2ccc3ccccc3c2)nc(N2CCOCC2)n1` [Compound 160] the same measures were 9.5 µM and 44.2.
For `CC(=NNc1nc(Nc2ccccc2)nc(N2CCCC2)n1)c1ccc([N+](=O)[O-])cc1` [Compound 183] the same measures were 47.8 µM and “max”.
On to `COc1ccc(Nc2nc(NCCc3ccccc3)nc(N(C)C)n2)cc1OC` [Compound 252], for which the “HBV + rRNA IC50 (μM)” value is “inactive”.
As for `Cc1ccc(Nc2nc(NN=Cc3ccc(O)cc3O)nc(Nc3ccc([N+](=O)[O-])cc3)n2)cc1C` [Compound 9], the IC50 was 6.2 µM and the Specificity was found to be 132.6.
In the same order, the values of `COc1ccc(Br)cc1/C=N/Nc1nc(Nc2cccc([N+](=O)[O-])c2)nc(N2CCOCC2)n1` [Compound 28] are 18.9 µM and “max”.
In the same order, the values of `Cc1ccc(Nc2nc(Nc3cccc(C(F)(F)F)c3)nc(N3CCOCC3)n2)cc1C` [Compound 251] are 45 µM and “max”.
In the same order, the values of `Cc1ccc(Nc2nc(NN=Cc3ccc(Cl)cc3)nc(N3CCOCC3)n2)cc1` [Compound 249] are 47.2 µM and “max”.
Take `CCCCN(CCCC)c1nc(NN=Cc2ccc([N+](=O)[O-])cc2)nc(Nc2ccc([N+](=O)[O-])cc2)n1` [Compound 5]: the concentration for half-maximal inhibition (IC50) was 49.3 µM and the Specificity result was “max”.
Consider `Cc1ccc(Nc2nc(NN=Cc3cc(I)ccc3O)nc(Nc3ccccc3)n2)c(C)c1` [Compound 159], for which the half-inhibitory concentration (IC50) was determined as 2.7 µM and the Specificity result is “max”.
For `FC(F)(F)c1cccc(Nc2nc(Nc3cccc(Cl)c3)nc(N3CCOCC3)n2)c1` [Compound 247] the same measures were 6.7 µM and “max”.
Consider `Cc1ccc(Nc2nc(NN=Cc3ccc(Cl)cc3)nc(N3CCOCC3)n2)cc1Cl` [Compound 196], for which the IC50 was determined as 32.7 µM and the Specificity entry is “max”.
As to `CCN(CC)c1nc(NN=Cc2ccc([N+](=O)[O-])cc2)nc(Nc2ccccc2)n1` [Compound 13], the IC50 is 4.9 µM and the Specificity entry was “max”.
`Clc1ccc(C=NNc2nc(Nc3ccccc3)nc(N3CCCC3)n2)cc1` [Compound 218]: the IC50 turned out to be 4.8 µM and the Specificity turned out to be 12.0.
Regarding `COc1ccccc1C=NNc1nc(NCc2ccccc2)nc(Nc2ccccc2)n1` [Compound 195], the 50% inhibitory concentration (IC50) came out at 28.2 µM and the Specificity entry is “max”.
In the same order, the values of `O=C(CSc1nc(SCC(=O)Nc2ccccc2C(F)(F)F)nc(SCC(=O)Nc2ccccc2C(F)(F)F)n1)Nc1ccccc1C(F)(F)F` [Compound 212] are 23.1 µM and “max”.
In the same order, the values of `COc1c(Br)cc(Br)cc1C=NNc1nc(Nc2ccccc2)nc(N2CCCCC2)n1` [Compound 14] are 7.1 µM and “max”.
For `CCN(CC)c1nc(NCc2ccccc2)nc(N/N=C/c2ccccc2O)n1` [Compound 155, 2-hydroxybenzaldehyde N-[4-(benzylamino)-6-(diethylamino)-1,3,5-triazin-2-yl]hydrazone] the same measures were 25.5 µM and “max”.
For the compound `Brc1ccc(Nc2nc(NCc3ccccc3)nc(Nc3ccc(Br)cc3)n2)cc1` [Compound 230], the 50% inhibitory concentration (IC50) worked out at 20.9 µM and the Specificity entry is reported as “max”.

Values taken from patent publication US6335339B1, “Triazine antiviral compounds” (Scriptgen Pharmaceuticals, Inc., priority 1998, dated 2002).
